Tests used:
CYP27A1 = target: T1, CYP27A1 (Homo sapiens, UniProt Q02318); assay: CYP27A1 enzyme assay; format: biochemical
T1 sequence (Q02318 34-531): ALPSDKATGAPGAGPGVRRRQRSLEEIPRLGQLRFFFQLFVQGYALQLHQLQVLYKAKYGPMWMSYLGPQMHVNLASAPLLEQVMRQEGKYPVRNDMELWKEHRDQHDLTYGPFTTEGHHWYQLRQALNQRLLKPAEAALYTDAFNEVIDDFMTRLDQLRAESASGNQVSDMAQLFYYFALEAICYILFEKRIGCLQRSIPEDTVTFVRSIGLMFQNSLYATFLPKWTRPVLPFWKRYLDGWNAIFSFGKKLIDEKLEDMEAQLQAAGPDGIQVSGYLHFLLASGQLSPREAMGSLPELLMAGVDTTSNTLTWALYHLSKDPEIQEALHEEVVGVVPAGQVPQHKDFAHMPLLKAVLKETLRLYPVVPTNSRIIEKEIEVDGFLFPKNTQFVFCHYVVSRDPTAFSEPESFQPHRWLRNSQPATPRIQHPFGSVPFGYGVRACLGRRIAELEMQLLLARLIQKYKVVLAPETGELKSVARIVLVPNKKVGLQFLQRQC

SCC-25 cells = assay: [3H]-thymidine proliferation assay with SCC-25 cells; format: cell-based; conditions: together with calcitriol, three days, [3H]-thymidine 6 h
Description: 1. Preparation of Cell Suspension • When SCC-25 cells were 70-80% confluent, aspirated media. Washed the cells with 1×PBS. Trypsinized with trypsin-EDTA from the plate, collected cells from the tissue culture flask, centrifuged (500×g, 5 min) and resuspended in media.
2. Cell Plating. • Counted the cells and adjusted the cell density to 10,000/ml. Added 200 μl per well in a 96 well plate. Incubated plate for 24 h at 37° C. in a humidified atmosphere plus 5% CO2. Aspirated used media and replaced with 150 μl per well with media.
3. Compound Addition. • Added 25 μl of 1α,25(OH)2D3 (final concentration 10^−6M, 10^−7 M, 10^−8 M, M, 10^−10 M, 10^−11 M) into each designated well. Added 25 μl of substrate (final concentration 10^−7 M, 5×10^−8 M, 10^−8 M or 10^−9 M) into each designated well. Incubated plates for 3 days at 37° C. in a humidified atmosphere plus 5% CO2.
4. ^3H-Thymidine Incorporation. • Added ^3H-thymidine at 0.02 μCi per well and incubated at 37° C. in a humidified atmosphere plus 5% CO2 for 6 h.
5. Plate Harvesting. • Aspirated all media and washed cells with 1×PBS. Trypsinized cells for 30 min at 37° C. in a humidified atmosphere plus 5% CO2. Harvested cells onto a 96 well filter plate (Millipore) using a Tomtec Cell Harvestor, according to manufacturers instructions.
6. Scintillation Counting. • Added 25 μl of scintillation fluid per well. Counted the plate using a scintillation counter.

IC50 (CYP27A1) [µM] | Structure (SMILES) | inhibition of proliferation of SCC-25 cells (SCC-25 cells)
> 1 | C=C1/C(=C\C=C2/CCC[C@]3(C)[C@@H]([C@H](C)CCS(=O)(=NC)c4ccccc4)CC[C@@H]23)C[C@@H](O)C[C@@H]1O (single isomer, unassigned) [I(e)] | act to inhibit the proliferation
 | C[C@H](CCS(=N)(=O)c1ccccc1)[C@H]1CC[C@H]2/C(=C/C=C3C[C@@H](O)C[C@H](O)C3)CCC[C@]12C (single isomer, unassigned) [I(i), 24-Phenyl Sulfoximine 19-Nor-Vitamin-D3] | act to inhibit the proliferation
> 1 | C=C1/C(=C\C=C2/CCC[C@]3(C)[C@@H]([C@H](C)CCS(=O)(=NC)c4ccccc4)CC[C@@H]23)C[C@@H](O)C[C@@H]1O (single isomer, unassigned) [I(g)] | act to inhibit the proliferation
 | C=C1/C(=C\C=C2/CCC[C@]3(C)[C@@H]([C@H](C)CCS(=N)(=O)c4ccccc4)CC[C@@H]23)C[C@@H](O)C[C@@H]1O (single isomer, unassigned) [I(a)] | act to inhibit the proliferation

From patent publication US7973024B2, “24-sulfoximine vitamin D3 compounds” (Cyctochroma Inc., priority 2002, dated 2011)
